Experimental data as given in paper PMC11372076, “A dual inhibitor of PIP5K1C and PIKfyve prevents SARS-CoV-2 entry into cells” (Experimental & Molecular Medicine, 2024).

Tests used:
Format in all cases: cell-based
GFP-PIP5K1C = assay: Cellular thermal shift assay (CETSA); conditions: versus DMSO control, Western blot
Experimental: (§1) The chemically treated cells were heated to 56 °C for 3 min to denature and precipitate nontargeted proteins. The heated cells were immediately snap-frozen in liquid nitrogen overnight. After the cells were frozen and thawed twice, the tubes were briefly vortexed. The resulting cell lysates were subjected to SDS‒PAGE.
(§2) Fig. 1 UNI418 specifically targets PIP5K1 and PIKfyve. a Chemical structure of UNI418. The 4-quinazolinamine core is highlighted in green. b Table of the kinase profiling analysis. Inhibition of several kinases was determined at a 1 μM concentration of UNI418 and analyzed by the SelectScreen Kinase Profiling Service (Thermo Fisher Scientific). c Cellular thermal shift assay. Ectopically expressed GFP-PIP5K1C and GFP-PIKfyve were heated to the indicated temperatures with/without UNI418, and the presence of protein in the soluble fraction was analyzed by Western blot analysis. […]

GFP-PIKfyve = assay: Cellular thermal shift assay (CETSA); conditions: versus DMSO control, Western blot
Experimental: as §1, §2

cathepsin L = assay: Cathepsin L maturation by Western blot; conditions: Vero cells
RPE1 cells [1] = assay: PtdIns(4,5)P2 level by flow cytometry; conditions: overnight
Experimental: (§3) CUGAUCAAGAU G A -3 and PIKfyve#2 siRNA 5'-
(§4) […] -3'. siRNA oligonucleotides were purchased from Genolution, Sigma- Aldrich and Integrated DNA Technologies.
(§5) These siRNAs were transfected into the cell using lipofectamine RNAiMAX (Invitrogen, 13778150) following manufacturer ’s protocol.
(§6) RPE1 cells were treated with UNI418 at indicated concentration for over-night.
(§7) After that, the image was taken by EVOS M5000 (Thermo Fisher Scientific).
(§8) RPE1 cells were treated with UNI418 at the different concentration during the time. Live cell images were taken by Lionheart LX Automated Microscope and analyzed in Gen5 (Agilent).
RPE1 cells were treated with indicated doses of UNI418 overnight. To analyze PIP2 level by flow cytometry, trypsinized cells were fixed with 4% paraformaldehyde for 10 min at room temperature. […] Cells were washed three times with 1% BSA-PBS and incubated with the fluorescence- conjugated secondary antibody Alexa Fluor® 488 AffiniPure Goat Anti-Mouse IgG (H+L) (Jackson ImmunoResearch,111- 545- 003) for 1h at room temperature analyzed by BD Accuri C6 Plus flow cytometer (BD Biosciences). […]
PtdIns(4,5)P2 level was analyzed by flow cytometry. […] Significance was determined by Student’s t-test, **p < 0.01. b Representative flow cytometry graph for PIP2 level after indicated dose of […]

RPE1 cells [2] = assay: Vacuolization analysis
Experimental: as §3, §4, §5, §6, §7, §8
RPE1 cells were treated with indicated doses of UNI418 overnight. To analyze PIP2 level by flow cytometry, trypsinized cells were fixed with 4% paraformaldehyde for 10 min at room temperature. The fixed cells were permeabilized with 0.2% PBS-T (Triton X-100) for 5min and blocked with 5% Bovine Serum Albumin (BSA), and stained with the primary antibody for 4h at 4°C. Cells were washed three times with 1% BSA-PBS and incubated with the fluorescence- conjugated secondary antibody Alexa Fluor® 488 AffiniPure Goat Anti-Mouse IgG (H+L) (Jackson ImmunoResearch,111- 545- 003) for 1h at room temperature analyzed by BD Accuri C6 Plus flow cytometer (BD Biosciences). […]

c1ccc(-c2cc(Nc3nc(-c4ccncc4)nc4ccccc34)n[nH]2)cc1 [UNI418, N -(5-phenyl-1 H -pyrazol-3-yl)-2-(4-pyridinyl)-4-quinazolinamine]
thermal stabilization of target protein in soluble fraction (GFP-PIP5K1C): more stable at higher temperatures | thermal stabilization of target protein in soluble fraction (GFP-PIKfyve): more stable at higher temperatures | proteolytic maturation of cathepsin L (cathepsin L): considerably inhibited | levels of PtdIns(4,5)P2 (RPE1 cells [1]): reduced | vacuolization (RPE1 cells [2]): induced vacuolization
